Measured values taken from US9662318B2, “Bitopic muscarinic agonists and antagonists and methods of synthesis and use thereof” (BARRY UNIVERSITY, INC., priority 2012, dated 2017).
Like-named read-outs stand apart in the source and are kept apart here.

Tests used:
[1] = target: T1, M1 muscarinic receptor (Homo sapiens, UniProt P11229); assay: Accumulation of inositol phosphates in CHO cells; format: cell-based; settings: ligand 0.1 mM, no carbachol
T1 sequence (P11229 1-460): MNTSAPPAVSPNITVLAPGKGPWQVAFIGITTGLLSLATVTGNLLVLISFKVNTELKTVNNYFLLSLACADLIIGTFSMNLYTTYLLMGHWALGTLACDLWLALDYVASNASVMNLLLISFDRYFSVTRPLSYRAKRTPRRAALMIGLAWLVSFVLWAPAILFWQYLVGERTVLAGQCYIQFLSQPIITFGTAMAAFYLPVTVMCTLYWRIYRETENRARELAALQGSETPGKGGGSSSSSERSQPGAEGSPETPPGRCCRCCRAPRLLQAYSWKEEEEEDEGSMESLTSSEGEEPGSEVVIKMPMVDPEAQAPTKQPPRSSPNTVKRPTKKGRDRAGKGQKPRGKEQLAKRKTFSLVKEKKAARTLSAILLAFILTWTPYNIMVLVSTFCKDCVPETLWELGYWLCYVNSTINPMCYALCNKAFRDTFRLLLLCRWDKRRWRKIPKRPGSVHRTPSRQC
Description: (§1) Chinese hamster ovary cells stably transfected with the genes of human variants of muscarinic receptors were purchased from Missouri S&T cDNA Resource Center (Rolla, Mo., USA). […] Cells were grown to confluency in 75 cm^2 flasks in Dulbecco's modified Eagle's medium supplemented with 10% fetal bovine serum and 2 million of cells were subcultured to 100 mm Petri dishes. Medium was supplemented with 5 mM butyrate for the last 24 hours of cultivation to increase receptor expression.
(§2) Inositolphosphates formation was determined in cells pre-labeled overnight by 0.5 μM [^3H]myo-inositol in 0.3 mL of DMEM (3 μCi/ml) at 37° C. […] Incubation was stopped by removal of incubation buffer and addition 0.2 mL 20% trichloracetic acid (TCA). After 1 h incubation at 4° C., 100 μL, of TCA extracts were taken for measurement. Rest of the TCA was removed, and TCA precipitates were washed with 200 μL TCA and dissolved in 200 μL of 1 M NaOH. After 1 h incubation at 4° C., 100 μL, of NaOH lysates were taken for measurement. Radioactivity in TCA extracts and NaOH lysates were determined by liquid scintillation counting. The rate of inositolphosphates accumulation was calculated as a percentage of the soluble (released) inositolphosphates from the total incorporated radioactivity (sum of radioactivity in NaOH lysates and TCA extracts).
(§3) EC50 values are expressed as negative logarithms and EMAX values as folds over basal, Table 7.

[2] = target: T2, M5 muscarinic receptor (Homo sapiens, UniProt P08912); assay: Accumulation of inositol phosphates in CHO cells; format: cell-based; settings: M5; ligand 0.1 mM; no carbachol
T2 construct: host or cells: CHO (Chinese hamster ovary) cells, stably transfected
T2 sequence (P08912 1-532): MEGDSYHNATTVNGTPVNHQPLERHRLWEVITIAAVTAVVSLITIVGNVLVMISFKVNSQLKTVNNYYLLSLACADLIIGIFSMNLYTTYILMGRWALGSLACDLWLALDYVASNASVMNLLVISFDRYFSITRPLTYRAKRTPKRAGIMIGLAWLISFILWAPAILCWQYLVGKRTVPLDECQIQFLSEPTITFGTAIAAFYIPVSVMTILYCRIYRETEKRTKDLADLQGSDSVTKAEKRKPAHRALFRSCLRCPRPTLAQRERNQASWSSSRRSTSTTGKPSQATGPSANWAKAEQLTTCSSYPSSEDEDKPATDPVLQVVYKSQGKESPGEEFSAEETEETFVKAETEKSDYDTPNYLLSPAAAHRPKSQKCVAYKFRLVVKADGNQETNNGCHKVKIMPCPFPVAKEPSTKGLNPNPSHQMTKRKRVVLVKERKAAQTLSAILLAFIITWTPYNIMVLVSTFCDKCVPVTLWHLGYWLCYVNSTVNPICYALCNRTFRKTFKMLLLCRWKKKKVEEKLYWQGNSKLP
Description: as §1, §2, §3

[3] = target: T2, M5 muscarinic receptor; assay: biochemical; format: binding; settings: competition with [^3H]QNB
[4] = target: T3, M3 muscarinic receptor (Homo sapiens, UniProt P20309); assay: biochemical; format: binding; settings: competition with [^3H]QNB
T3 construct: host or cells: Chinese hamster ovary cells
T3 sequence (P20309 whole entry): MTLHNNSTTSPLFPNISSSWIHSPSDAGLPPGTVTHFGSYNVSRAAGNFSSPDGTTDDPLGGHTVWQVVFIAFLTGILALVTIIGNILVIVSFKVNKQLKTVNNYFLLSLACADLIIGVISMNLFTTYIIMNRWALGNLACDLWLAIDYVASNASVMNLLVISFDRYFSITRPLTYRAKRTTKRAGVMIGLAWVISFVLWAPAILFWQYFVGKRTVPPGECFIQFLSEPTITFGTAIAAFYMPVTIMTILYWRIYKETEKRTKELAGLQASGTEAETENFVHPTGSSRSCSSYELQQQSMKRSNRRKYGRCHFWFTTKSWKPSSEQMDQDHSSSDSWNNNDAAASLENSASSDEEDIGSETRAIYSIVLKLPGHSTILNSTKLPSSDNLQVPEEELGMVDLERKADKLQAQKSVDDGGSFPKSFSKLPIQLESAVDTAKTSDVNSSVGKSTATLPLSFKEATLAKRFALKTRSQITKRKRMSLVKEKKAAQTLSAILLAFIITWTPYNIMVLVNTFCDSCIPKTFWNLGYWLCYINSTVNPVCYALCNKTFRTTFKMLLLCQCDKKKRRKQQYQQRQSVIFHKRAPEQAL

For `CCCCOc1ccc(C(=O)OCC[N+]2(C)CCCCC2)cc1.[I-]` [JB-D4, 2-(N-piperidineethyl) p-butoxybenzoate N-methyl iodide], which “Effect of ligands on basal activity (accumulation of inositol phosphates as percent of accumulation in the absence of the ligand)” value [1] is on record?
The value was 97 ± 2%.

And the “Effect of ligands on basal activity (accumulation of inositol phosphates as percent of accumulation in the absence of the ligand)” value [2]?
Its value is 98 ± 3%.

What about the Ki ([3]; M5) of the same molecule?
The Ki was 0.827 µM.

What about the IC50 ([3]; M5, average of 3, read-out: avg IC50) of the same molecule?
The IC50 was 6.61 µM.

What about the IC50 ([3]; M5, experiment 1, read-out: IC50—1) of the same molecule?
Its IC50 is 5.73 µM.

What about the IC50 ([3]; M5, experiment 2, read-out: IC50—2) of the same molecule?
Its IC50 is 6.76 µM.

And the IC50 ([3]; M5, experiment 3, read-out: IC50—3)?
The IC50 was 7.34 µM.

What about the Ki ([4]; M3) of the same molecule?
Its Ki is 4.34 µM.

And the IC50 ([4]; M3, average of 3, read-out: avg IC50)?
The IC50 was 29.4 µM.

What about the IC50 ([4]; M3, experiment 1, read-out: IC50—1) of the same molecule?
Its IC50 is 39.5 µM.

What about the IC50 ([4]; M3, experiment 2, read-out: IC50—2) of the same molecule?
The IC50 was 20.6 µM.

What about the IC50 ([4]; M3, experiment 3, read-out: IC50—3) of the same molecule?
The IC50 was 28.2 µM.
